# According to EP0360437A1, “Biocidal polylamine-amides” (priority 1988, dated 1990):
# Like-named read-outs stand apart in the source and are kept apart here.
# Test system: complex formed by the invertebrate L-quisqualate sub-type L-glutamate receptor and its ion channel
# Design: species or system Schistocerca gregaria
# Method: The compounds were assayed for biological activity on the isolated, retractor unguis nerve-muscle preparation of the locust Schistocerca gregaria (Usherwood, P.N.R and Machili, P. (1968) J. Exp. Biol., 49: 341.). Isolated muscle preparations were bathed continuously in standard locust saline in a bath of volume 250µl. Twitch tension recordings of the muscle were made to electrical stimulation of its motor innervation supramaximal voltage, frequency 0.1Hz).
# The locust isolated retractor unguis nerve-muscle is a preparation with well characterised muscle receptors belonging to the quisqualate-sensitive class (Boden, P. et al., (1986) Brain Res., 385: 205.). This preparation has previously been employed to identify antogonists of excitatory amino acid receptors, (e.g. Bateman, A. et al., (1985) Brain Res., 339: 237 and Budd, T. et al., (1988) Brain Res., 448: 30.).
# The potency of this monocylated spermine as an antagonist of the complex formed by the invertebrate L-quisqualate sub-type L-glutamate receptor and its ion channel was assayed using the electrically stimulated retractor unguis muscle of the locust (Schistocerca gregaria). Twitch amplitude was reduced (1% inhibition) from control (100%) levels at the following concentrations: […]
smiles,measurement,setting,value
"NCCCNCCCCNCCCNC(=O)CCc1cccc(O)c1 [Example 5, N(3-Hydroxyphenylpropanoyl)-spermine]",inhibition of twitch,1.08 x 10⁻⁶M,15%
same,inhibition of twitch,1.08 x 10⁻⁷M,10%
"NCCCNCCCCNCCCNC(=O)Cc1cccc(O)c1 [Example 2, N-(3-Hydroxyphenylacetyl)-spermine]",inhibition of twitch,3 x 10⁻⁷M,35%
same,inhibition of twitch,3 x 10⁻⁸M,30%
"NCCCNCCCCNCCCNC(=O)Cc1cc(O)cc(O)c1 [Example 9, N-(3,5-Dihydroxyphenylacetyl)-spermine]",Twitch amplitude was reduced from control levels,1 07 x 10⁻⁶M,25%
same,Twitch amplitude was reduced from control levels,1.07 x 10⁻⁵M,45%
"NCCCNCCCCNCCCNC(=O)C=Cc1cccc(O)c1 [Example 13, N-(3-Hydroxycinnamoyl)-spermine]",Twitch amplitude was reduced from control levels,9.2 x 10⁻⁷M,approximately 25%
"NCCCNCCCCNCCCNC(=O)Cc1ccc(O)cc1 [Example 3, N-(4-Hydroxyphenylacetyl)-spermine]",Twitch amplitude was reduced from control (100%) levels,2.95x 10⁻⁵M,74%
same,Twitch amplitude was reduced from control (100%) levels,4.43x 10⁻⁵M,91%
same,Twitch amplitude was reduced from control (100%) levels,5.9 x 10⁻⁵M,96%
same,Twitch amplitude was reduced from control (100%) levels,5.9 x 10⁻⁶M,25%
same,Twitch amplitude was reduced from control (100%) levels,5.9 x 10⁻⁷M,9%
"NCCCNCCCNCCCNC(=O)Cc1cccc(O)c1 [Example 20, N-(3-Hydroxyphenylacetyl)-N′,N˝-bis(3-aminopropyl)-1,3-propanediamine]",Twitch amplitude was reduced from control (100%) levels,1.04 x 10⁻⁴M,approximately 60%
"NCCCNCCCCNCCCNC(=O)CCc1ccc(O)cc1 [Example 22, N-(4-Hydroxyphenylpropanoyl)-spermine]",Twitch amplitude was reduced from control levels,1.45x 10^-5M,38%
same,Twitch amplitude was reduced from control levels,1.45x 10^-6M,30%
same,Twitch amplitude was reduced from control levels,2.9 x 10^-5M,81%
same,Twitch amplitude was reduced from control levels,2.9 x 10^-6M,38%
same,Twitch amplitude was reduced from control levels,2.9 x 10^-7M,25%
same,Twitch amplitude was reduced from control levels,2.9 x 10^-8M,10%
same,Twitch amplitude was reduced from control levels,7.25x 10^-5M,100%
same,IC50,"reduction of twitch amplitude, retractor unguis muscle, read-out: IC₅₀",6 µM
NCCCNCCCCNCCCNC(=O)c1ccccc1O [Example 10],Twitch amplitude was reduced from control level,1.09 x 10⁻⁵M,approximately 25%
"NCCCNCCCNCCCNC(=O)Cc1ccc(O)cc1 [Example 21, N-(4-Hydroxyphenylacetyl)-N′,N˝-bis(3-aminopropyl)-1,3-propanediamine]",Twitch amplitude was reduced from control (100%) levels,10⁻⁴M,approximately 30%
"NCCCNCCCCNCCCNC(=O)C=Cc1ccc(O)cc1 [Example 6, N-(4-Hydroxycinnamoyl)-spermine]",Twitch amplitude was reduced from control (100%) levels,10⁻¹⁰M,4%
same,Twitch amplitude was reduced from control (100%) levels,10⁻⁵M,70%
same,Twitch amplitude was reduced from control (100%) levels,10⁻⁶M,56%
same,Twitch amplitude was reduced from control (100%) levels,10⁻⁷M,33%
same,Twitch amplitude was reduced from control (100%) levels,10⁻⁸M,24%
same,Twitch amplitude was reduced from control (100%) levels,10⁻⁹M,18%
"NCCCNCCCCNCCCNC(=O)c1cccc(O)c1 [Example 11, N-(3-Hydroxybenzoyl)-spermine]",Twitch amplitude was reduced from control levels,1.02 x 10⁻⁵M,approximately 40%
"NCCCNCCCCNCCCNC(=O)Cc1ccccc1O [Example 1, N-(2-Hydroxyphenylacetyl)-spermine]",inhibition of twitch,1.5 x 10⁻⁴M,85%
same,inhibition of twitch,1.5 x 10⁻⁵M,30%
same,inhibition of twitch,3 x 10⁻⁴M,90%
same,inhibition of twitch,3 x 10⁻⁵M,30%
same,inhibition of twitch,3 x 10⁻⁶M,20%
same,inhibition of twitch,3 x 10⁻⁷M,15%
same,inhibition of twitch,3 x 10⁻⁸M,10% inhibition of twitch
